Literature values as cited in patent US20110224245A1, “Treatment Of Neurological Disorders Using Huperzine” (President and Fellows of Harvard College, priority 2008, published 2011).

System: 6 Hz seizures
Details: established antiepileptic drugs; cited from earlier work

| Structure (SMILES) | efficacy in the 6 Hz psychomotor seizure model |
| --- | --- |
| NC(=O)N1c2ccccc2C=Cc2ccccc21 [carbamazepine] | limited efficacy |
| Nc1nnc(-c2cccc(Cl)c2Cl)c(N)n1 [lamotrigine] | limited efficacy |
| O=C1NC(=O)C(c2ccccc2)(c2ccccc2)N1 [phenyloin] | limited efficacy |
| CC1(C)O[C@@H]2[C@@H](CO[C@@]3(COS(N)(=O)=O)OC(C)(C)O[C@@H]23)O1 [topiramate] | limited efficacy |
